Data published in article PMC7194013 (Nature plants, 2020).

Assays:
Assay in all cases: in vitro enzyme assay with purified recombinant CPS and GGPP, GC-FID
Assay type in all cases: biochemical
[1] = biological target: T1, ZmCPS2 (An2) (Zea mays, UniProt A0A1D6K6U5)
T1 sequence (A0A1D6K6U5 71-825): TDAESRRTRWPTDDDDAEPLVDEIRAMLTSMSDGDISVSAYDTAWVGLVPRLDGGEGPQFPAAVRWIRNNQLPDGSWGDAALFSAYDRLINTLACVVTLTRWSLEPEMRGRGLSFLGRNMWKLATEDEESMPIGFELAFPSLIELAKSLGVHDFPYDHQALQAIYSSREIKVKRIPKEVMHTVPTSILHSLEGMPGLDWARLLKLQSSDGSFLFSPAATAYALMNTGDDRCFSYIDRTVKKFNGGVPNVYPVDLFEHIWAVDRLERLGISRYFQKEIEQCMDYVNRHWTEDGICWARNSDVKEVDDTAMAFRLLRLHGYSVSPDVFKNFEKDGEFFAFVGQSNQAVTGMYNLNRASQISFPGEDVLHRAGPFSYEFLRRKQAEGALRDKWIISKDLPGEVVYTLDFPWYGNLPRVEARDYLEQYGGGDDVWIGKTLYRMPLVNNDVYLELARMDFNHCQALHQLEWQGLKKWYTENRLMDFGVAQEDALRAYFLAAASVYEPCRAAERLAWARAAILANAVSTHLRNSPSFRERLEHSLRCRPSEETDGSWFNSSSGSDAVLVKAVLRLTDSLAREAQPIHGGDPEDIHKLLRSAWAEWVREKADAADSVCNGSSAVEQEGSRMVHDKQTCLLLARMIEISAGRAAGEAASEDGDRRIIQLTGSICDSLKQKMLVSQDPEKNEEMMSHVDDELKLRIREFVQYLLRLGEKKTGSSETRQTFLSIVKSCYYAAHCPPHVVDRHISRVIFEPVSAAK

[2] = biological target: T2, ZmCPS1 (An1) (Zea mays, UniProt Q41771)
T2 sequence (Q41771 64-824): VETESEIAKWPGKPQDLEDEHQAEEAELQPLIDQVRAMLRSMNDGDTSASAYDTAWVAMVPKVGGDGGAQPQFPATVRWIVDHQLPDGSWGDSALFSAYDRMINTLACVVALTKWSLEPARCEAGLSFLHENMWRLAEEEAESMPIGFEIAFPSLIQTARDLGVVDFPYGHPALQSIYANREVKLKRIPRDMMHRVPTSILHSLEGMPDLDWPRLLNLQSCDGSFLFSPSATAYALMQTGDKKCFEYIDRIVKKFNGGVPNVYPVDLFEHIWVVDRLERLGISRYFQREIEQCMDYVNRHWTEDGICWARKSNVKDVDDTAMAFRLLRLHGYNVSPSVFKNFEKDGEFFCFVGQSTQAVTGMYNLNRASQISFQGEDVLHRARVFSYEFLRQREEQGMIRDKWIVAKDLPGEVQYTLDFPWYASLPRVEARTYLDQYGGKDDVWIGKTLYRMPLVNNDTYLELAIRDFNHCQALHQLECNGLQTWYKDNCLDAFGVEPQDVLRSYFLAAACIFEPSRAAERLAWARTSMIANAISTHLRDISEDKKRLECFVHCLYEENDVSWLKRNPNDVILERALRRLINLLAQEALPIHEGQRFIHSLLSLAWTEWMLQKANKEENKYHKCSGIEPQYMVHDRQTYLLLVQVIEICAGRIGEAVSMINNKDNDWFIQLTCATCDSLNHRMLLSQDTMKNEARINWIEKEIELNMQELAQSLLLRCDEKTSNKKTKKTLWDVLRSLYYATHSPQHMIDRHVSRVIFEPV

[3] = biological target: T3, AtCPS (ent-copalyl diphosphate synthase, GA1) (Arabidopsis thaliana, UniProt Q38802)
T3 sequence (Q38802 85-802): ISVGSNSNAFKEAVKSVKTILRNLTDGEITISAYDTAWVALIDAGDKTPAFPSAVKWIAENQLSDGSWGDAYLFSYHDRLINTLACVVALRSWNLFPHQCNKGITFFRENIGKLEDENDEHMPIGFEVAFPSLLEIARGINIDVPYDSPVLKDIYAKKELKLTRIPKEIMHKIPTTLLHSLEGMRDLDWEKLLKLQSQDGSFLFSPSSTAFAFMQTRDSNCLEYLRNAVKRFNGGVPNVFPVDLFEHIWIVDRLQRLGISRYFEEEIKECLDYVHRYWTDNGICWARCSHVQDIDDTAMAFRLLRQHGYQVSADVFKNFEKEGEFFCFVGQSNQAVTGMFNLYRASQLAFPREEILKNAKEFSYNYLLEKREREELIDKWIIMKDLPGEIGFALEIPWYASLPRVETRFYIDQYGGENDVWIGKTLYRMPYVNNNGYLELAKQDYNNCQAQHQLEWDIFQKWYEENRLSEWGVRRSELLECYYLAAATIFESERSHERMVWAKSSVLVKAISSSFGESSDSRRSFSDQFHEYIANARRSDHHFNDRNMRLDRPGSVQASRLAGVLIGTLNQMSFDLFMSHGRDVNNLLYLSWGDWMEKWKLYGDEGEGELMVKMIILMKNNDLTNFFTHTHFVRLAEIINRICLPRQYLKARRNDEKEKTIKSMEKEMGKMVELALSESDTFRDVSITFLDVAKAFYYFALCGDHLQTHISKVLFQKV

C[N+]1(C)CCCCC1 [DPC, 1,1-dimethyl-piperidinium chloride]
IC50 [1]: 4000 µM | IC50 [2]: 2000 µM | IC50 [3]: 30 µM
